Experimental data taken from patent US20220202783A1, “Use Of ADAM9 Inhibitor As Immunomodulator” (China Medical University, priority 2019, published 2022).

Experiments:
Format in all cases: cell-based
Set-up in all cases: key to effect of inhibiting tumor cell growth: “+” represents that the compound has the effect of inhibiting tumor cell growth
[1] = cytotoxicity assay in 293 cells; details: 293
[2] = system: kidney cancer cells (293); test: cytotoxicity assay in 293 cells; details: Homo sapiens, HEK293
[3] = cytotoxicity assay in HNOF cells; details: human, HNOF cells
HNOF = test: cytotoxicity assay in HNOF cells; details: HNOF
lung cancer cells (A549) = test: cytotoxicity assay in A549 cells; details: for IC50: Homo sapiens
Method: (§1) Please refer to FIG. 1A, FIG. 1B and Table 2, which show the analysis results of the compound of Formula (I) inhibiting ADAM9 activity. In FIG. 1A, Bm7 lung cancer cells were treated with the derivatives of the compound 6X-0310, and then cultured under anchorage-free culture condition. The expressions of ADAM9 and CDCP1 in Bm7 lung cancer cells were detected by Western blot, in which EF1α is an internal control, and mock represents Bm7 lung cancer cells without treatment. […] In the experiment, the compounds of Formula (I) of Example 1 to Example 32 were further performed cytotoxicity assay to measure the IC50 value of the compounds of Formula (I) of the present disclosure in lung cancer cell lines.

[4] = system: lung cancer cells (H1299); test: cytotoxicity assay in H1299 cells; details: for effect of inhibiting tumor cell growth: H1299; for IC50: Homo sapiens, NCI-H1299
Method: as §1

lung cancer cells (TC1) = test: cytotoxicity assay in TC1 cells; details: for IC50: TC-1
Method: as §1

[5] = system: lung cancer cells (Bm7brmx2); test: cytotoxicity assay in Bm7brmx2 cells
Method: as §1

[6] = system: lung cancer cells (Bm7brmx2-1st); test: cytotoxicity assay in Bm7brmx2-1st cells
Method: as §1

[7] = system: lung cancer cells (Bm7brmx2-2nd); test: cytotoxicity assay in Bm7brmx2-2nd cells
Method: as §1

N#C/C(=C\c1cccc2ccccc12)c1nc(CCN2C(=O)c3ccccc3C2=O)cs1 [6X-0309]
effect of inhibiting tumor cell growth [1]: +
IC50 [2]: 82.2 µM
IC50 [3]: 114 µM
effect of inhibiting tumor cell growth (HNOF): +
effect of inhibiting tumor cell growth (lung cancer cells (A549)): +
IC50 (lung cancer cells (A549)): > 125 µM
effect of inhibiting tumor cell growth [4]: +
IC50 [4]: 93.8 µM
effect of inhibiting tumor cell growth (lung cancer cells (TC1)): +
IC50 (lung cancer cells (TC1)): 89.4 µM
IC50 [5]: 89.8 µM
effect of inhibiting tumor cell growth [5]: +
IC50 [6]: 628 µM
effect of inhibiting tumor cell growth [6]: +
IC50 [7]: 385 µM
effect of inhibiting tumor cell growth [7]: +

N#C/C(=C\C=C\c1ccccc1)c1nc(CCN2C(=O)c3ccccc3C2=O)cs1 [6X-0311]
effect of inhibiting tumor cell growth [1]: +
IC50 [2]: 231 µM
IC50 [3]: 411 µM
effect of inhibiting tumor cell growth (HNOF): +
effect of inhibiting tumor cell growth (lung cancer cells (A549)): +
IC50 (lung cancer cells (A549)): 211 µM
effect of inhibiting tumor cell growth [4]: +
IC50 [4]: 505 µM
effect of inhibiting tumor cell growth (lung cancer cells (TC1)): +
IC50 (lung cancer cells (TC1)): > 125 µM
IC50 [5]: > 125 µM
effect of inhibiting tumor cell growth [5]: +
IC50 [6]: > 50 µM
effect of inhibiting tumor cell growth [6]: +
IC50 [7]: 590 µM
effect of inhibiting tumor cell growth [7]: +

O=C1c2ccccc2C(=O)N1CCc1csc(-c2ccccc2)n1 [11W-0296]
effect of inhibiting tumor cell growth [1]: +
IC50 [2]: 62.6 µM
IC50 [3]: 92 µM
effect of inhibiting tumor cell growth (HNOF): +
effect of inhibiting tumor cell growth (lung cancer cells (A549)): +
IC50 (lung cancer cells (A549)): 421 µM
effect of inhibiting tumor cell growth [4]: +
IC50 [4]: 234 µM
effect of inhibiting tumor cell growth (lung cancer cells (TC1)): +
IC50 (lung cancer cells (TC1)): 259 µM
IC50 [5]: 1260 µM
effect of inhibiting tumor cell growth [5]: +
IC50 [6]: 175 µM
effect of inhibiting tumor cell growth [6]: +
IC50 [7]: 147 µM
effect of inhibiting tumor cell growth [7]: +

O=C1c2ccccc2C(=O)N1CCc1csc(COc2cccc(C(F)(F)F)c2)n1 [12W-0232]
effect of inhibiting tumor cell growth [1]: +
IC50 [2]: 73.6 µM
IC50 [3]: 103 µM
effect of inhibiting tumor cell growth (HNOF): +
effect of inhibiting tumor cell growth (lung cancer cells (A549)): +
IC50 (lung cancer cells (A549)): 184 µM
effect of inhibiting tumor cell growth [4]: +
IC50 [4]: 119 µM
effect of inhibiting tumor cell growth (lung cancer cells (TC1)): +
IC50 (lung cancer cells (TC1)): 99.2 µM
IC50 [5]: 138 µM
effect of inhibiting tumor cell growth [5]: +
IC50 [6]: > 50 µM
effect of inhibiting tumor cell growth [6]: +
IC50 [7]: 77.7 µM
effect of inhibiting tumor cell growth [7]: +

O=C1c2ccccc2C(=O)N1CCc1csc(-c2ccccn2)n1 [12W-0266]
effect of inhibiting tumor cell growth [1]: +
IC50 [2]: 122 µM
IC50 [3]: 184 µM
effect of inhibiting tumor cell growth (HNOF): +
effect of inhibiting tumor cell growth (lung cancer cells (A549)): +
IC50 (lung cancer cells (A549)): 190 µM
effect of inhibiting tumor cell growth [4]: +
IC50 [4]: 253 µM
effect of inhibiting tumor cell growth (lung cancer cells (TC1)): +
IC50 (lung cancer cells (TC1)): 169 µM
IC50 [5]: 429 µM
effect of inhibiting tumor cell growth [5]: +
IC50 [6]: 88.8 µM
effect of inhibiting tumor cell growth [6]: +
IC50 [7]: 134 µM
effect of inhibiting tumor cell growth [7]: +

O=C1c2ccccc2C(=O)N1CCc1csc(-c2ccc(F)cc2)n1 [12W-0272]
effect of inhibiting tumor cell growth [1]: +
IC50 [2]: 134 µM
IC50 [3]: 600 µM
effect of inhibiting tumor cell growth (HNOF): +
effect of inhibiting tumor cell growth (lung cancer cells (A549)): +
IC50 (lung cancer cells (A549)): 177 µM
effect of inhibiting tumor cell growth [4]: +
IC50 [4]: 845 µM
effect of inhibiting tumor cell growth (lung cancer cells (TC1)): +
IC50 (lung cancer cells (TC1)): 823 µM
IC50 [5]: 391 µM
effect of inhibiting tumor cell growth [5]: +
IC50 [6]: 130 µM
effect of inhibiting tumor cell growth [6]: +
IC50 [7]: 264 µM
effect of inhibiting tumor cell growth [7]: +
